Values after ≈ are worked out from the molar mass of the structure shown. “Also recorded” adds a separate entry of the source. Where two headings read alike, the source gives them in different places.
What was measured:
MV4-11-luc cells = experiment: MV4-11-luc AML model in NSG mice; details: MV4-11-luc in NSG mice, 20 mg/kg i.p. q.o.d.; for survival: 20 mg/kg
Experimental: E NSG mice were inoculated (i.p.) with 5 × 10^5 MV4-11-luc cells. Four days later, when substantial tumor burden was evident by bioluminescence imaging, MC180379, MC180380, or vehicle were administered (i.p.) q.o.d at 20 mg/kg. Luciferase expression was quantified and calculated. F Mouse survival in days. […] Significances were calculated using log-rank (Mantel-Cox) or Student’s t tests.
0.5 mg/kg DAC was administered (i.p.) daily. […] B Mouse survival in days. 20 mg/kg MC180295 was administered (i.p.) q.o.d. 0.5 mg/kg DAC was administered (i.p.) daily. C NSG mice were inoculated (i.p.) with 5 × 10^5 MV4-11-luc cells. Four days later, when substantial tumor burden was evident by bioluminescence imaging, MC180295 (20 mg/kg) or vehicle were administered (i.p.) every other day. 0.5 mg/kg DAC was administered (i.p.) daily. Luciferase expression was quantified and calculated. […] 0.5 mg/kg DAC was administered (i.p.) daily. Mouse survival shown in days. Significances were calculated using log-rank (Mantel-Cox) or Student's t tests. Data are shown as means ± SEMs. ***p < 0.001
Both female and male NOD.Cg-Prkdcscid Il2rgtm1Wjl/SzJ (NSG) mice were used for the experiments. Age- and gender-matched mice were randomly assigned to each group. 8–10-week-old NSG mice were tail vein-injected with 5 × 10^5 MV4-11-luc cells. […] Natural death or accumulation of ascites fluid were used as endpoints.

CDK9 = molecular target: T1, CDK9 (Homo sapiens, UniProt P50750); experiment: CDK9 inhibitory activity of MC180295 and its enantiomers; assay type: biochemical; details: Fig. S3E
T1 construct: purchased Reaction Biology Corp
Experimental: CDK enzymatic assays were performed by Reaction Biology Corp. (Malvern, PA), using 10 µM ATP for determining MC180295 IC50 values for each CDK family member for which assays were available. Kinase enzymatic assays were also performed by Nanosyn (Santa Clara, CA), using microfluidic technology and MC180295 IC50 curves against 10 CDKs. Selectivity against CDK9 was confirmed for the enantiomers at Reaction Biology Corp. (Malvern, PA).

[1] = Liver microsome stability assay; assay type: in vitro ADME, dog; details: pooled liver microsomes, pH 7.4; for remaining at 1 h, 1 µM: male, beagle, Dog liver microsomes, without NADPH, 60 min, read-out: Stability minus NADPH % Remaining @ 60 min; for half-life at 1 µM: Dog (beagle, male) liver microsomes
Experimental: (§1) Assays were conducted in 96-deep well polypropylene plates. In duplicate, test compounds (1 µM) were incubated in 0.5 mL of 100 mM potassium phosphate buffer (pH 7.4), with 0.5 mg/ml pooled liver microsomes (Life Technologies: CD-1 male mice # MSMCPL; SD male rat # RTMCPL; mixed gender human # HMMCPL. […] At five time points, 75 µL of reaction mixtures were transferred on ice to a 96-shallow well stop plate containing 225 µL acetonitrile with 0.1 µM propafenone. […] Standard curves for test compounds were generated using 5 concentrations (in duplicate) that were processed as above but with no incubation time. Stop plates were centrifuged at 2000xg for 10 min in a Sorvall ST 16 centrifuge, and 170 µL of the supernatants transferred to a Waters® Aquity UPLC (Ultra Performance Liquid Chromatography) 700 µL 96-well sample plate with cap mat. A Waters® Aquity UPLC BEH C18 1.7 µM, 2.1 × 50 mm column, at 40 °C, was used to fractionate 5 µL samples, using a 3 min linear 5 to 95% acetonitrile gradient in 0.1% formic acid with a 0.75 mL/min flow rate. In tandem with UPLC, compound concentrations were analyzed using a Waters® TQ MS mass spectrometer in electrospray-positive mode (source temperature 150 °C; desolvation temperature 450 °C; desolvation flow rate of 900 L/hr). Cone voltages, collision energies, and quantitation were optimized and determined using Waters® QuanOptimize software, with propafenone as an internal standard. MC180379:CV 34; CE 34; mrm 359.15 > 114.91; MC180390 CV 34; CE 28; mrm 359.15 > 114.92. GraphPad® Prism v 5.04 was used for nonlinear fitting of time course data to generate t1/2 and CLint (intrinsic clearance) values.

[2] = Liver microsome stability assay; assay type: in vitro ADME; details: pooled liver microsomes, pH 7.4, Cynomologous Monkey liver microsomes; for half-life at 1 µM: cynomolgus monkey; for remaining at 1 h, 1 µM: without NADPH, 60 min, read-out: Stability minus NADPH % Remaining @ 60 min
[3] = Liver microsome stability assay; assay type: in vitro ADME, human; details: both sexes, pooled liver microsomes, pH 7.4; for half-life at 1 µM: Human (mixed gender) liver microsomes; for remaining at 1 h, 1 µM: Human liver microsomes, without NADPH, 60 min, read-out: Stability minus NADPH % Remaining @ 60 min
Experimental: as §1

Kinetic solubility = assay type: physicochemical; details: Dulbecco's PBS, aqueous buffer, kinetic from dmso stock; PBS (pH 7.4), Free Base
Experimental: The kinetic solubility of test compounds was determined by adapting Millipore® application note protocol AN1730EN00. Liquid handling was performed using PerkinElmer® Verispan and MDT workstations. In triplicate, 4 µL of 10 mM test compounds in DMSO were added to 196 µL of buffer (Dulbecco’s’ PBS or water). The 200 µM compound solutions, in 2% DMSO, were incubated with gentle shaking for 90 min at RT before vacuum filtration in 96-well polypropylene collection plates, using a Millipore® filtration manifold. 160 µL of filtrate was transferred to a 96-well UV Star analysis plate (Greiner Bio-One® plate # 655,801) containing 40 µL acetonitrile. Standard curves were generated by adding 4 µL of 50 × of five concentrations of test compounds, in DMSO, to 40 µL acetonitrile in UV Star plates, followed by 156 µL buffer. Absorbances at […] were measured using a Molecular Devices® Spectramax Plus microplate reader with Softmax Pro v. 5.4.5 software. Absorbance readings were summed to generate the signal. Test sample concentrations were interpolated from linear standard curves using GraphPad® Prism v 5.04.

[4] = Rat hepatocyte stability assay; assay type: in vitro ADME; parameters: dose or concentration left out as unconfirmed; details: cryopreserved primary hepatocytes; Rat (Sprague-Dawley) hepatocytes, male
Experimental: CLint (μL/min/10^6 cells) estimates were determined using a modified method of […] et al.. Cryopreserved rat (Sprague-Dawley) primary hepatocytes (4 male donors) (Life Tech product RTCS10) were rapidly thawed, diluted with Hank's balanced salt solution at 37 °C and centrifuged for 5 min at 100 × g. Resuspended cells were stained with 0.016% trypan blue and counted. Cell viability was > 80%. 0.25 mL of a 1 × 10^6 viable cells/ml cell suspension was added to 16-mm diameter wells of an uncoated polystyrene plate. The prewarmed plate was placed in a 37 °C incubator with 5% CO2 atmosphere, with 100 oscillations/min shaking. After 5 min, 0.25 mL of 2 μM test compound, in prewarmed HBSS, was added per well and mixed to start the reactions, with duplicate reactions per compound. Verapamil was used as a positive control, and cell-free reactions served as negative controls. At each time point (0, 5, 15, 30, 60, 90, and 120 min), 50 μL aliquots were transferred to a 96-well stop plate containing 200 μL/well acetonitrile: water (85:15), with 0.1% formic acid and 0.1 μM propafenone. The plate was centrifuged for 10 min at 2300 × g. 150 μL of the supernatant was transferred to a mass spectrometry sample plate. Samples were analyzed by UPLC/MS, as described in the microsome stability protocol. Results are expressed as t1/2 (min) and in vitro CLint (μL/min/10^6 cells).

T1 sequence (P50750 whole entry): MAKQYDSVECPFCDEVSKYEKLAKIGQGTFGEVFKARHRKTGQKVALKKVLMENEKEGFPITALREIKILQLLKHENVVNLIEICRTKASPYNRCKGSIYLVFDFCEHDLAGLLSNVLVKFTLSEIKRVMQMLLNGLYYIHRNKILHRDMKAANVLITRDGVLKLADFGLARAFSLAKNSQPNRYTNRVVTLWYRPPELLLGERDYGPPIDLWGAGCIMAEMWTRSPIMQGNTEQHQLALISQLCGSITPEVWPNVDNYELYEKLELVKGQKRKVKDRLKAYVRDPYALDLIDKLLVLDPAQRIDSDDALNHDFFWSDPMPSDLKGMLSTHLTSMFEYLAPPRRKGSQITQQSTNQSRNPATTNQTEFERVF
T1 sequence (O60563 whole entry partner): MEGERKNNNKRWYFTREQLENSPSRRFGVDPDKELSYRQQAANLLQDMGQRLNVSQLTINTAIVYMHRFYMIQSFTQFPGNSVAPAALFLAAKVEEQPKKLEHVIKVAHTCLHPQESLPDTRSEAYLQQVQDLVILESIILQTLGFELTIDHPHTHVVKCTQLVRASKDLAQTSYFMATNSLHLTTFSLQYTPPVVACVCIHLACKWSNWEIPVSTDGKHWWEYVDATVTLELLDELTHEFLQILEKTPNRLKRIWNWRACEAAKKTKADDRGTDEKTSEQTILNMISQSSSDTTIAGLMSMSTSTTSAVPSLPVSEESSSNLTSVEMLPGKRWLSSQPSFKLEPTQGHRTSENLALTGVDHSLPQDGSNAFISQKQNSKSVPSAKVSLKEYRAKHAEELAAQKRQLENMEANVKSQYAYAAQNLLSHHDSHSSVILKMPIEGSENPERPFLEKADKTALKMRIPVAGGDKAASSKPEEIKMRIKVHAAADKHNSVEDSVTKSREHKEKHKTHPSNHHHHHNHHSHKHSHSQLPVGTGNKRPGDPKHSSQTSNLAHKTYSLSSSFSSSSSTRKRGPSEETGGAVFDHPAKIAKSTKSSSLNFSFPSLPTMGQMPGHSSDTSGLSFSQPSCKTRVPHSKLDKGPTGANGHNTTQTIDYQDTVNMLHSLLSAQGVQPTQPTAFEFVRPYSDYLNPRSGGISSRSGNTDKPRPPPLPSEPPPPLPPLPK

Structure (SMILES)	survival (MV4-11-luc cells)	IC50 (CDK9)	remaining at 1 h, 1 µM [1]	half-life at 1 µM [1]	half-life at 1 µM [2]	remaining at 1 h, 1 µM [2]	half-life at 1 µM [3]	remaining at 1 h, 1 µM [3]	solubility at 90 min (Kinetic solubility)	half-life [4]	tumor burden, as measured by luciferase intensities (MV4-11-luc cells)
Nc1nc(N[C@H]2C[C@@H]3CC[C@H]2C3)sc1C(=O)c1ccccc1[N+](=O)[O-] (relative stereo) [MC180295]	significantly extended survival	11 nM	–	–	–	–	–	–	–	–	–
Nc1nc(N[C@@H]2C[C@H]3CC[C@@H]2C3)sc1C(=O)c1ccccc1[N+](=O)[O-] [MC180379]	–	11 nM	88%	36.2 min	0.8 min	73%	12.2 min	86%	53.5 µM (≈ 19.2 µg/mL)	4.1 min	–
Nc1nc(N[C@H]2C[C@@H]3CC[C@H]2C3)sc1C(=O)c1ccccc1[N+](=O)[O-] [MC180380]	significantly extended survival; also recorded: better survival	9 nM	88%	52.5 min	1.5 min	51%	21.1 min	88%	52.6 µM (≈ 18.9 µg/mL)	11.7 min	lower
